Results published in PMC9307946, “A peptoid-based inhibitor of protein arginine methyltransferase 1 (PRMT1) induces apoptosis and autophagy in cancer cells” (The Journal of Biological Chemistry, 2022).
Where “and” joins values, the source holds several entries; their conditions need not be identical. Equal entries are not always repeated. *1 amine or outer side, *2 acyl side, *3 side chain or, on linkers, in order; H or OH if unused. Where a SMILES comes first, the peptide text is derived from it. [ ]: non-standard residue; d: D form. X2 = N=C(CCl)NCCC[C@H](N[*:1])C(=O)[*:2]; X1 = N=C(CCl)NCCCN(CC(=O)[*:2])[*:1]; Gly(N-CH2CH2OH) = O=C(O)CNCCO; Nleu = CC(C)CNCC(=O)O; Nlys = NCCCCNCC(=O)O; Sar = CNCC(=O)O

Key:
PRMT1 = molecular target: T1, PRMT1 (Homo sapiens, UniProt Q99873); assay: MTase-Glo methyltransferase IC50 assay, PRMT1; assay type: biochemical; conditions: for IC50: 200 nM PRMT1, AcH4-21 substrate 225 μM
T1 construct: made in house
T1 sequence (Q99873 1-353 isoform Q99873-3, species assumed): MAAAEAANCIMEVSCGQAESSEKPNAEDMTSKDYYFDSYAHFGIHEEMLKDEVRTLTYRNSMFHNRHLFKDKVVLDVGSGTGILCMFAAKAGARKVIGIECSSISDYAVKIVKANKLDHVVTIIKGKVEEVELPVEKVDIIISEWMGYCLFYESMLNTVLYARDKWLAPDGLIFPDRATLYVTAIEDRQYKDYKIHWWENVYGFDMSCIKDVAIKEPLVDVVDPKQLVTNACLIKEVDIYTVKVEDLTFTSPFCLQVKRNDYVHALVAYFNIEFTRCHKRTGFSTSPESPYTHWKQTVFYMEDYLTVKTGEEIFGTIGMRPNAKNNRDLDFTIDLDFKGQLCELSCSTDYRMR
Experimental: (§1) The IC50 value for the peptoid inhibitors were measured using the MTase-Glo methyltransferase assay kit (Promega). The peptoid was incubated in assay buffer (20 mM Tris-HCl pH 8.0, 50 mM NaCl, 1 mM EDTA, 3 mM MgCl2, 0.1 mg/ml BSA, 1 mM DTT) and […] (0–1000 μM). After a preincubation of 10 min, 200 nM PRMT1 or PRMT5 was added to the assay before adding in the substrate (AcH4-21) at 225 μM. After 15 min, the reaction was quenched with 0.5% TFA (0.1% final concentration), vortexed, and incubated for an additional 10 min. To detect product formation, the MTase-Glo reagent was added for 30 min at rt, followed by addition of the MTase-Glo detection solution for an additional 30 min. Finally, the luminescence signal was measured using a BioTek Synergy two multi-mode microplate reader. The values were converted to product concentration using a standard curve of SAH (0–5 μM). The IC50 values were determined using Equation 1 and fit to a curve using GraFit 7.03.(1) FractionalactivityofPRMT=1/(1+([I]/IC50)) IC50 is the concentration of inhibitor resulting in 50% PRMT activity, and [I] is the inhibitor concentration.

PRMT5 = molecular target: T2, PRMT5 (Homo sapiens, UniProt O14744); assay: MTase-Glo methyltransferase IC50 assay, PRMT5; assay type: biochemical; conditions: 200 nM PRMT5, AcH4-21 substrate 225 μM
T2 construct: made in house
T2 sequence (O14744 whole entry, species assumed): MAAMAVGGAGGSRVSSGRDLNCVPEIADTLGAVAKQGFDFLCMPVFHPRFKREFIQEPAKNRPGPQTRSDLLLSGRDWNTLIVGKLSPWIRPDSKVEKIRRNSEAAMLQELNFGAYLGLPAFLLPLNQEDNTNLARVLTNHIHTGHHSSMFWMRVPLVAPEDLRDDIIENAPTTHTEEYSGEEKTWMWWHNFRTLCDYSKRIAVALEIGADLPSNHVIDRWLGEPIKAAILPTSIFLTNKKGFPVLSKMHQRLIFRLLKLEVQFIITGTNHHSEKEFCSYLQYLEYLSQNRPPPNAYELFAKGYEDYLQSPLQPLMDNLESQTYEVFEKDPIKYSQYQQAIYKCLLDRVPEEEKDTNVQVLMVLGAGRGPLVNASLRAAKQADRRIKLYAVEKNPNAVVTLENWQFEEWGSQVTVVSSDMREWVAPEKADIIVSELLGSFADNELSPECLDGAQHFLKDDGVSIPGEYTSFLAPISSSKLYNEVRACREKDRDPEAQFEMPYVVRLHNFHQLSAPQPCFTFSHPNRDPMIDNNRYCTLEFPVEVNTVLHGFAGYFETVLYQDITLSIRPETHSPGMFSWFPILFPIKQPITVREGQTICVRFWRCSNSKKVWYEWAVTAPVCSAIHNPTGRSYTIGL
Experimental: as §1

SMILES	IC50 (PRMT1) [µM]	IC50 (PRMT5) [µM]	increase in potency (PRMT1 IC50) compared to the non-warhead H4-16 peptoid (PRMT1; warhead peptoid vs corresponding original peptoid)
CC(=O)N[C@@H](CO)C(=O)NCC(=O)N[C@@H](CCCNC(=N)CCl)C(=O)NCC(=O)N[C@@H](CCCCN)C(=O)NCC(=O)NCC(=O)N[C@@H](CCCCN)C(=O)NCC(=O)N[C@@H](CC(C)C)C(=O)NCC(=O)N[C@@H](CCCCN)C(=O)NCC(=O)NCC(=O)N[C@@H](C)C(=O)N[C@@H](CCCCN)C(N)=O [AcH4-16 warhead peptide] (Ac-SG[X2]GKGGKGLGKGGAK-NH2; C-terminus assumed)	46.9 ± 4.86		
CC(C)C[C@H](NC(=O)CNC(=O)[C@H](CCCCN)NC(=O)CNC(=O)CNC(=O)[C@H](CCCCN)NC(=O)CNC(=O)[C@H](CCCNC(=N)CCl)NC(=O)CNC(=O)[C@@H](N)CO)C(=O)NCC(=O)N[C@@H](CCCCN)C(=O)NCC(=O)NCC(=O)N[C@@H](C)C(=O)N[C@@H](CCCCN)C(N)=O [Compound P2 Peptide] (H-SG[X2]GKGGKGLGKGGAK-NH2; N-terminus and C-terminus assumed)	29.6 ± 5.16		
CC(=O)N(CCO)CC(=O)NCC(=O)N(CCCNC(=N)CCl)CC(=O)NCC(=O)N(CCCCN)CC(=O)NCC(=O)NCC(=O)N(CCCCN)CC(=O)NCC(=O)N(CC(=O)NCC(=O)N(CCCCN)CC(=O)NCC(=O)NCC(=O)N(C)CC(=O)N(CCCCN)CC(N)=O)CC(C)C [compound P2A] (Ac-[Gly(N-CH2CH2OH)]G[X1]G[Nlys]GG[Nlys]G[Nleu]G[Nlys]GG[Sar][Nlys]-NH2)		> 500	
CC(C)CN(CC(=O)NCC(=O)N(CCCCN)CC(=O)NCC(=O)NCC(=O)N(C)CC(=O)N(CCCCN)CC(N)=O)C(=O)CNC(=O)CN(CCCCN)C(=O)CNC(=O)CNC(=O)CN(CCCCN)C(=O)CNC(=O)CN(CCCNC(=N)CCl)C(=O)CNC(=O)CNCCO [compound P2] (H-[Gly(N-CH2CH2OH)]G[X1]G[Nlys]GG[Nlys]G[Nleu]G[Nlys]GG[Sar][Nlys]-NH2)	8.73 ± 0.314	> 500	45 fold and > 45 fold
